Blank lines part the entries; values can stand above or below the molecule they belong to.
Key:
[1] = molecular target: T1, Synaptic vesicular amine transporter (Rattus norvegicus, UniProt Q01827); assay: Displacement of [3H]DTBZ from VMAT2 in rat synaptic vesicle membranes after 30 mins by liquid scintillation counting; format: cell membranes, Membrane
[2] = molecular target: T1, Synaptic vesicular amine transporter; assay: Inhibition of VMAT2-mediated [3H]dopamine uptake in rat synaptic vesicle membranes; format: cell membranes, Membrane
[3] = Aqueous solubility in water; format: physicochemical

T1 sequence (Q01827 whole entry): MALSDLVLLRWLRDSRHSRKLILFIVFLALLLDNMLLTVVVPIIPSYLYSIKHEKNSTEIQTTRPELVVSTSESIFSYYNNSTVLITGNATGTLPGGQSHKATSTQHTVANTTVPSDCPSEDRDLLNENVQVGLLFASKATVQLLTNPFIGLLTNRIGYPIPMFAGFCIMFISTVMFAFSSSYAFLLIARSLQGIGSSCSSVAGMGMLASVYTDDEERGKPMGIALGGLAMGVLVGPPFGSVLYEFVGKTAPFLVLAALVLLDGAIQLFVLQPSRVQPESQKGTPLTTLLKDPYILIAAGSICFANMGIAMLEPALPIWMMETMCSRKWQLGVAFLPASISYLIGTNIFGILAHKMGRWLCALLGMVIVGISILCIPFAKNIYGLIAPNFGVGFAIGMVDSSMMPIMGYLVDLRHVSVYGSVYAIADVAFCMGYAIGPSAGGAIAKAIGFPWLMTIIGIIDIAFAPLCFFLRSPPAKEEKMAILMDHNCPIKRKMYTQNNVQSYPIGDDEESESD

SMILES: CN1[C@@H](CCc2ccc3ccccc3n2)CCC[C@H]1CCc1ccc2ccccc2n1
Ki [1]: 0.96 µM | Ki [2]: 0.067 µM

SMILES: CN1[C@@H](CCc2c[nH]c3ccccc23)CCC[C@H]1CCc1c[nH]c2ccccc12
Ki [1]: 26 µM | Ki [2]: 2.13 µM

SMILES: CN1[C@@H](CCc2ccncc2)CCC[C@H]1CCc1ccncc1
Ki [1]: 5.87 µM | Ki [2]: 5.23 µM

solubility [3]: 0.3 mg/mL
SMILES: CN1[C@@H](CCc2ccccc2)CCC[C@H]1CCc1ccccc1.O=S(=O)(O)O

SMILES: CN1[C@@H](CCc2cccnc2)CCC[C@H]1CCc1cccnc1
Ki [1]: 33.3 µM | Ki [2]: 3.72 µM

SMILES: CN1[C@@H](CCc2ccnc3ccccc23)CCC[C@H]1CCc1ccnc2ccccc12.Cl [QUINLOBELANE]
Ki [1]: 2.64 µM | Ki [2]: 0.051 µM | solubility [3]: ≥ 20 mg/mL

— ChEMBL document CHEMBL1158628, “Quinlobelane: a water-soluble lobelane analogue and inhibitor of VMAT2” (Bioorg Med Chem Lett, 2010)
